Experiments:
[1] = Test for acute toxicity (LD50, oral, 7 days); conditions: mouse, in vivo, mice, deaths within 7 days, 5 mice per group
Description: Mice (ddY strain; male; body weight 21-23 g) were used as test animals. Each group consisted of 5 mice. The test compound was orally administered to each mouse. During the test period of 7 days after the administration, the number of deaths in each group was counted to calculate the LD50. All animals were bred in a breeding room, maintained at a temperature of 23°±2° C. and a humidity of 55-60%. These animals were given a solid feed "F-2" (commercial product of Funabashi Nojo) and city water ad libitum.

[2] = system: mice subjected to normobaric hypoxia; assay: Effects on survival time of mice subjected to normobaric hypoxia; format: in vivo, mouse (ddY strain; male); conditions: 50 mg/kg oral, 2 h before; 96% nitrogen/4% oxygen; protected = alive 10 or more minutes
Description: Mice (ddY strain; male; body weight 20-22 g) were used as test animals. Each group consisted of 10 or more mice. A test compound (50 mg/kg) was orally administered to each mouse.
Then each animal was put into a glass cylinder (capacity: 700 ml) and a mixture of nitrogen (96%) and oxygen (4%) was passed through the cylinder at a velocity of 5 1 /min and expelled through a hole in the side wall. The time from the start of the gas mixture supply to the cessation of respiratory motion was measured, and animals which remained alive for 10 or more minutes were evaluated as "protected". Among 50 untreated animals, no animal remained alive. In use, the test compound was suspended in an aqueous solution of carboxymethylcellulose sodium (0.3%).

[3] = system: mice subjected to hypobaric hypoxia; assay: Effects on survival time of mice subjected to hypobaric hypoxia; format: in vivo, mouse (ddY strain; male); conditions: 30 mg/kg oral, 2 h before; 150 mmHg; mean ± S.E.; *P < 0.05, **P < 0.001 vs control
Description: Mice (ddY strain; male; body weight 20-22 g) were used as test animals. Each group consisted of 10 or more mice. A test compound (30 mg/kg) was orally administered to each mouse. Two hours after the administration, each animal was put into a desiccator (capacity: 9 l), and the inside pressure of the desiccator was reduced to 150 mmHg over a period of 52-55 seconds. The time from the start of the pressure reduction to the cessation of respiratory motion was measured. Survival time of the compound-administered group and that of the control group were compared by t-test.

[4] = system: mice subjected to anaemic hypoxia; assay: Effects on survival time of mice subjected to anaemic hypoxia (NaNO2); format: in vivo, mouse (ddY strain; male); conditions: 30 mg/kg oral, 2 h before; NaNO2 225 mg/kg s.c.; mean ± S.E.; *P < 0.05, **P < 0.001 vs control
Description: (Hypoxia induced by NaNO2 administration to convert haemoglobin to methemoglobin)
Mice (ddY strain; male; body weight 20-22 g) were used as test animals. Each group consisted of 10 or more mice. A test compound (30 mg/kg) was orally administered to each mouse. Two hours after the administration, NaNO2 (225 mg/kg) was subcutaneously administered to each mouse. The time from the NaNO2 administration to death was measured. Survival time of the compound-administered group and that of the control group were compared by t-test.

[5] = system: decapitated heads of mice; assay: Effect on time of gasping persistence by decapitated heads of mice; format: in vivo, mouse (ddY strain; male); conditions: 30 mg/kg oral, 2 h before decapitation; mean ± S.E.; **P < 0.001 vs control
Description: Mice (ddY strain; male; body weight 20-22 g) were used as test animals. Each group consisted of 10 or more mice. A test compound (30 mg/kg) was orally administered to each mouse. Two hours after the administration, each animal was decapitated, and the time from the decapitation to the cessation of gasping was measured. Time of gasping persistence of the treated group and that of the control group were compared by t-test.

[6] = system: cerebral ischaemia or cerebral hypoxia; conditions: cited from literature; cited from earlier work
[7] = Acute toxicity (general statements, comparison with nizofenone); conditions: in vivo, po; per os; species and method not stated at this place
[8] = cited from literature / background; cited from earlier work

SMILES	LD50 at 168 h [1]	A/B (number of animals surviving / number of animals tested) [2]	further results
CC1CCCCN1C(=O)C=Cc1ccc(C(F)(F)F)cc1 (stereo not drawn) [Compound 1, 2-methyl-1-(4-trifluoromethylcinnamoyl) piperidine]	> 1010 mg/kg	10/10	Survival Time [3]: 582.8 ± 12.1 s; Survival Time [4]: 64.9 ± 5.5 min; Persistence Time (gasping) [5]: 39.1 ± 1.4 s
CC1COCCN1C(=O)C=Cc1ccc(C(F)(F)F)cc1 (stereo not drawn) [Compound 2, 3-methyl-4-(4-trifluoromethylcinnamoyl) morpholine]	675 to 1010 mg/kg	8/10	
CC1CCCCN1C(=O)C=Cc1ccc(Cl)cc1 (stereo not drawn) [Compound 3, 2-Methyl-1-(4-chlorocinnamoyl) piperidine]	> 1010 mg/kg	9/10	Survival Time [3]: 172.4 ± 11.3 s; Survival Time [4]: 47.7 ± 5.5 min; Persistence Time (gasping) [5]: 30.2 ± 1.1 s
CC1CCCCN1C(=O)C=Cc1ccc(F)cc1 (stereo not drawn) [Compound 4, 2-Methyl-1-(4-fluorocinnamoyl) piperidine]	> 1010 mg/kg	7/20	Survival Time [3]: 126.3 ± 6.9 s; Survival Time [4]: 58.4 ± 5.5 min; Persistence Time (gasping) [5]: 23.5 ± 0.8 s
CC1CCCC(C)N1C(=O)C=Cc1ccc(C(F)(F)F)cc1 (stereo not drawn) [Compound 5, 2,6-Dimethyl-1-(4-trifluoromethylcinnamoyl) piperidine]	> 1010 mg/kg	15/20	
O=C(C=Cc1ccc(F)cc1)N1CCOCC1 [Compound 6, 4-(4-Fluorocinnamoyl) morpholine]	> 1010 mg/kg	2/10	
O=C(C=Cc1ccc(C(F)(F)F)cc1)N1CCOCC1 [Compound 7, 4-(4-Trifluoromethylcinnamoyl) morpholine]	300 to 450 mg/kg	4/10	
CC1CCN(C(=O)C=Cc2ccc(C(F)(F)F)cc2)CC1 [Compound 8, 4-Methyl-1-(4-trifluoromethylcinnamoyl) piperidine]	> 1010 mg/kg	5/20	
O=C(C=Cc1ccc(C(F)(F)F)cc1)N1CCCCC1CO (stereo not drawn) [Compound 9, 2-Hydroxymethyl-1-(4-trifluoromethylcinnamoyl) piperidine]		2/10	
O=C(C=Cc1ccc(C(F)(F)F)cc1)N1CCC(O)CC1 [Compound 10, 4-Hydroxy-1-(4-trifluoromethylcinnamoyl) piperidine]		2/10	
O=C(C=Cc1ccc(C(F)(F)F)cc1)N1CCSCC1 [Compound 11, 4-(4-Trifluoromethylcinnamoyl) thiomorpholine]		7/10	
O=C(C=Cc1ccc(C(F)(F)F)cc1)N1CC[S+]([O-])CC1 [Compound 12, 4-(4-trifluoromethylcinnamoyl) thiomorpholine-1-oxide]		8/10	
O=C(C=Cc1ccc(C(F)(F)F)cc1)N1CCS(=O)(=O)CC1 [Compound 13, 4-(4-trifluoromethylcinnamoyl) thiomorpholine-1,1-dioxide]		6/10	
O=C(C=Cc1ccc(Cl)cc1)N1CCCCC1 [Compound 14, 1(4-chlorocinnamoyl) piperidine]	> 1010 mg/kg	4/10	
O=C(C=Cc1ccc(Cl)c(Cl)c1)N1CCOCC1 [Compound 15, 4(3,4-dichlorocinnamoyl) morpholine]	450 to 675 mg/kg	5/10	
O=C(C=Cc1ccc(Cl)cc1)N1CCOCC1 [Compound 16, 4(4-chlorocinnamoyl) morpholine]	675 to 1010 mg/kg	5/10	
CCC1(c2ccccc2)C(=O)NC(=O)N(C)C1=O (stereo not drawn) [mephobarbital]			cerebral protective effect (literature) [6]: have a cerebral protective activity
CCN(CC)Cc1nccn1-c1ccc([N+](=O)[O-])cc1C(=O)c1ccccc1Cl.O=C(O)/C=C/C(=O)O [nizofenone, 1-[2-(2-chlorobenzoyl)-4-nitrophenyl]-2-(diethylaminomethyl)imidazole fumarate]			LD50 [7]: 450 to 675 mg/kg; cerebral protective effect (literature) [6]: has a cerebral protective effect against cerebral ischaemia or cerebral hypoxia, similar to that of barbiturates; anesthetic or respiration-suppressing action, side effects (literature) [8]: does not exhibit an anesthetic or respiration-suppressing action
CCCC(C)C1(CC)C(=O)NC(=O)NC1=O (stereo not drawn) [pentobarbital]			cerebral protective effect (literature) [6]: have a cerebral protective activity
CCCC(C)C1(CC)C(=O)NC(=S)NC1=O (stereo not drawn) [thiopental]			cerebral protective effect (literature) [6]: have a cerebral protective activity

Reference: patent publication US4962107A, “Agent for cerebral protection” (Kyowa Hakko Kogyo Kabushiki Kaisha, priority 1985, dated 1990)
